The numbers were not newly measured in patent US20120097160A1, “AGGLOMERATE FORMULATIONS INCLUDING ACTIVE PHARMACEUTICAL AGENTS WITH TARGETED PARTICLE SIZES” (SCHERING CORPORATION, priority 2009, published 2012), which cites them from elsewhere.

Like-named read-outs stand apart in the source and are kept apart here.

For the compound `C[C@@H]1C[C@H]2[C@@H]3CCC4=CC(=O)C=C[C@]4(C)[C@@]3(Cl)[C@@H](O)C[C@]2(C)[C@@]1(OC(=O)c1ccco1)C(=O)CCl` [Mometasone furoate, 9,21-Dichloro-11(beta), 17-dihydroxy-16(alpha)-methylpregna-1,4-diene-3,20-dione 17-(2 furoate)], the solubility entry (acetone) is listed as “soluble”; the solubility entry (chloroform) is “soluble”; the solubility result (ethanol) is on record as “slightly soluble”; the solubility result (isopropanol) was “slightly soluble”; the solubility result (methanol) was “slightly soluble”; the solubility entry (tetrahydrofuran) was “freely soluble”. Also, where the note is “water”, the solubility entry was “practically insoluble”.
